Reference: US6646006B2, “Enhancement of vascular function by modulation of endogenous nitric oxide production or activity” (The Board of Trustees of the Leland Stanford Junior …, priority 1993, dated 2003)
Entries after “also recorded” stand apart in the source; their conditions may differ.

Key:
[1] = system: hypercholesterolemic rabbits; assay: Organ chamber studies of isolated vessels from cholesterol-fed rabbits; format: in vivo, rabbit
From the text: Study design: (See, Cooke et al., 1992, supra) Male New Zealand white rabbits (n=49) were assigned to one of three treatment groups: 10 were fed with normal rabbit chow for ten weeks (Control); 19 received chow enriched with 1% cholesterol (Chol); and 20 received a 1% cholesterol diet supplemented with 2.25% L-arginine hydrochloride in the drinking water (Arg.). […] Subsequently the animals were sacrificed and the left main coronary artery and the thoracic aorta were harvested for studies of vascular reactivity and histomorphometry. In some animals, blood was collected for studies of platelet and monocyte reactivity.
By contrast, NO-dependent relaxations were attenuated in vessels harvested from hypercholesterolemic animals with a reduction in the maximal response to acetylcholine. In comparison, vessels harvested from hypercholesterolemic animals receiving L-arginine supplementation had improved NO-dependent relaxation to acetylcholine. In a separate study, the effect of chronic arginine supplementation to improve NO-dependent relaxation was confirmed in the hypercholesterolemic rabbit abdominal aorta.

[2] = system: platelets; assay: ADP-initiated platelet aggregation (nephelometry), platelets from treated rabbits; format: in vivo, rabbit
Procedure: The effect of L-arginine supplementation on platelet reactivity in rabbits that had normal chow (Control; n=6), a 1% cholesterol diet (Chol; n=5), or a 1% cholesterol diet supplemented with oral arginine (Arg; n=6), as detailed above, was examined. Arterial blood obtained after central ear artery cannulation was anticoagulated with 13 mM sodium citrate. Platelet-rich suspension was prepared by washing platelets in calcium-free Krebs-Henseleit solution and resuspending them in Tyrode's solution with albumin. Aggregation was initiated by addition of adenosine diphosphate and monitored by standard nephelometric techniques. In platelets derived from Chol animals, aggregation was not different in rate or maximum extent in comparison to platelets from Control animals (A, in FIG. 2). By contrast, aggregation of platelets from Arg animals was reduced by 50% (B, in FIG. 2).
Therefore, the anti-platelet effect of chronic oral arginine administration can be credited to an increased synthesis of endogenous NO. Furthermore, NO synthesis may be induced in both the platelets and the endothelium.

[3] = system: rabbit aortic endothelium; assay: Ex vivo binding of WEHI 78/24 monocytoid cells to rabbit aortic endothelium; format: in vivo; settings: two weeks, L-arginine supplementation
From the text: Methods. Animals. Male New Zealand White rabbits were pair fed, receiving one of the following dietary interventions for two weeks: normal rabbit chow (Cont, n=7); rabbit chow enriched with 1% cholesterol (Chol, n=7); or 1% cholesterol chow supplemented with 2.25% L-arginine HCl in the drinking water (Arg, n=7) ad libitum throughout the course of the study. […] One day before sacrifice (after 2 weeks of dietary intervention), animals were lightly sedated and the central ear artery was cannulated for collection of blood samples.
Mononuclear cell culture and isolation. Murine monocytoid cells, WEHI 78/24 cells were grown in Dulbecco's Modified Eagle's Medium supplemented 10% fetal calf serum (vol/vol) and were kept in an atmosphere of 5% CO2/95% air. Prior to binding studies, mononuclear cells were fluorescently labeled with TRITC (3 μg/ml). To confirm the results using WEHI cells, in some studies binding studies were performed in parallel using rabbit mononuclear cells. Mononuclear cells were isolated from fresh whole blood of Control rabbits before sacrifice.
Preparation of aortic endothelium and binding assay. […]
After 10 minutes the HBSS medium was replaced by binding medium containing WEHI cells. […] The aortic segments were then removed and placed on a glass slide, and adherent cells counted under epifluorescent microscopy from at least 30 sites on each segment.

[4] = system: hypercholesterolemic rabbits; assay: Balloon angioplasty of the iliac artery in hypercholesterolemic rabbits, oral arginine; format: in vivo, rabbit
From the text: Methods. Twenty-eight New Zealand white rabbits were randomized into one of three dietary groups and received either normal rabbit chow, 0.5% cholesterol diet, or 0.5% cholesterol diet plus L-arginine hydrochloride (2.25% W/V) in the drinking water. After six weeks of dietary intervention, left iliac artery of each animal was subjected to a balloon angioplasty. Four weeks later, the iliac arteries were harvested for vascular reactivity studies and immunohistochemistry.

[5] = system: hypercholesterolemic rabbits; assay: Local intraluminal arginine after iliac artery angioplasty in cholesterol-fed rabbits; format: in vivo, rabbit; settings: local infusion 6 mM, four weeks
From the text: FIG. 8 is a histogram showing the effect of local-intraluminal administration of arginine on restenosis. Hypercholesterolemic rabbits had balloon angioplasty of the iliac artery. Immediately thereafter some animals received an infusion of arginine directly into the vessel by means of a catheter designed to apply high local concentrations of arginine to the vessel. Two to four weeks later, vessels were removed from the animals, and examined microscopically. Thickening of the vessel wall (internal thickening or “restenosis”) was reduced in the animals treated with intraluminal infusion of arginine (ARG) in comparison to those treated with vehicle. (See Ex. 12)
To determine if intraluminal application of arginine to the vessel wall at the time of balloon angioplasty could inhibit lesion formation, the following study was performed. Rabbits (n=7) were fed a 1% cholesterol diet. After one week, angioplasty of the iliac arteries was performed. After angioplasty of one iliac artery, a local infusion catheter was used to expose the injured area to a high concentration of arginine (6 mM). The other iliac artery was subjected to balloon angioplasty, but not treated with a local infusion. After four weeks, the vessels were harvested, and segments of the arteries processed for histomorphometry.

[6] = design: species or system human; settings: in vivo, po
Procedure: (§1) The control subject population in this study included 12 normal volunteers, (10 males and 2 females), with an average age of 37±2 yrs. Normalcy was determined by a careful history, physical examination, and laboratory analysis to exclude individuals with hematologic, renal, or hepatic dysfunction or clinically evident atherosclerosis. There were 20 patients (10 males and 10 females) with hypercholesterolemia as defined by a total plasma cholesterol greater than 240 mg/dl and a LDL cholesterol level greater than 160 mg/dl. […] None of the subjects were taking diuretics, vasoactive medications, antiplatelet or hypolipidemic medications. This study was approved by the Stanford University Administrative Panel on Human Subjects in Medical Research and each subject gave written informed consent before entry into the study. Blood was drawn from each subject in the postabsorptive state.
Results. Oral administration of L-arginine ([…] for 2 weeks) to hypercholesterolemic humans increased plasma arginine values by 60% (from […]; n=7), whereas L-arginine values in the placebo-treated (n=3) and normocholesterolemic (n=6) groups remained unchanged.

[7] = system: human monocytes; assay: Ex vivo binding of human monocytes to bEnd3 endothelial cells after oral L-arginine; format: in vivo
Procedure: as §1
We isolated human monocytes from citrated venous blood. The blood was centrifuged and the buffy coat removed and resuspended with HBSS. The suspension was then carefully layered onto a cushion of 1.068-d Histopaque, and centrifuged. After centrifugation, the monocytes were aspirated.
We used the transformed endothelial cell (EC) line, bEnd3 to examine monocyte-endothelial binding ex vivo. The bEnd3 cells express endothelial adhesion molecules and bind monocytes in a cytokine-inducible fashion with kinetics similar to those observed with human umbilical vein endothelium. Monocytes were added to the wells containing the endothelial monolayers to reach a final cell number of 3×10^6/ml. In some studies, monocytes were exposed in vitro for 30 minutes to sodium nitroprusside (an NO donor) prior to the binding assay.
The six-well plates were transferred to a rocking platform and rocked for 30 minutes at room temperature. After 30 minutes, the cell suspension was aspirated from each well and wells were then rinsed with binding buffer to remove nonadherent monocytes. Videomicroscopic counting of adherent cells was performed using a computer aided image analysis system.
To confirm this effect of L-arginine treatment and to control for any experimental bias, a double-blinded, placebo-controlled, randomized study was performed. Ten hypercholesterolemic subjects were randomized (1:2) to placebo or L-arginine treatment; 6 normocholesterolemic individuals were studied in parallel to control for variation over time in the binding assay. At baseline, the adhesion of monocytes from both hypercholesterolemic groups was increased in comparison to the normocholesterolemic individuals (p<0.001). After 2 weeks of L-arginine administration, there was an absolute reduction of 53% in monocyte binding (n=7, p<0.005, baseline vs 2 weeks) (FIG. 11). By contrast, there was no significant change in the adhesiveness of monocytes isolated from hypercholesterolemic individuals treated with placebo.

[8] = two weeks after discontinuation of L-arginine

Structure (SMILES): N=C(N)NCCC[C@H](N)C(=O)O [L-arginine]
- NO-independent responses: maximal response or sensitivity to norepinephrine or nitroglycerin ([1]; differences between treatment groups): no differences
- NO-dependent relaxation to acetylcholine ([1]; vs hypercholesterolemic animals without supplement): improved
- cGMP content in aggregated platelets ([2]; arginine-treated animals): two-fold greater
- reduction of platelet aggregation ([2]; platelets from Arg animals, adenosine diphosphate): 50%
- increased WEHI cell binding to aortic endothelium of hypercholesterolemic animals [3]: significantly attenuated
- intimal thickening in injured vessels ([4]; four weeks after balloon angioplasty): reduced
- accumulation of macrophages in the lesion ([4]; four weeks after balloon injury, ARG vs CHOL): substantially inhibited; also recorded: significantly reduced
- endothelium-derived NO activity (bioassay) ([4]; iliac artery, hypercholesterolemic animals): partially restored
- thickening of the vessel wall in arginine-treated vessels [5]: significantly reduced
- increase of plasma arginine values ([6]; human, 2 weeks): 60%
- plasma arginine value after treatment ([6]; human, 2 weeks): 128 ± 12 mM
- effect on biochemical or hematologic parameters [6]: no effect
- tolerability [6]: well tolerated
- adhesiveness of monocytes compared with normal subjects ([7]; after 2 weeks of arginine treatment): no different from those of the normal subjects
- absolute reduction in monocyte binding ([7]; double-blinded placebo-controlled, baseline vs 2 weeks, n=7): 53%
- decrease in monocyte adhesiveness ([7]; open-label, 3 individuals, 2 weeks): 38%
- increase in binding vs that after 2 weeks of L-arginine therapy [7, 8]: 30±9%
- increase in bound cells/hpf vs normocholesterolemic individuals [7, 8]: 34±9%
